Measured values published in patent US20260158009A1 (GENZYME CORPORATION, priority 2023, published 2026).

Legend:
[1] = molecular target: T1, hRIPK1 (aa 1-375) fusion protein (Homo sapiens, UniProt Q13546); experiment: ADP-Glo kinase assay: catalytic activity of RIPK1 (autophosphorylation, conversion of ATP to ADP); assay type: biochemical
T1 construct: hRIPK1 (aa 1-375) fusion protein
T1 sequence (Q13546 1-375): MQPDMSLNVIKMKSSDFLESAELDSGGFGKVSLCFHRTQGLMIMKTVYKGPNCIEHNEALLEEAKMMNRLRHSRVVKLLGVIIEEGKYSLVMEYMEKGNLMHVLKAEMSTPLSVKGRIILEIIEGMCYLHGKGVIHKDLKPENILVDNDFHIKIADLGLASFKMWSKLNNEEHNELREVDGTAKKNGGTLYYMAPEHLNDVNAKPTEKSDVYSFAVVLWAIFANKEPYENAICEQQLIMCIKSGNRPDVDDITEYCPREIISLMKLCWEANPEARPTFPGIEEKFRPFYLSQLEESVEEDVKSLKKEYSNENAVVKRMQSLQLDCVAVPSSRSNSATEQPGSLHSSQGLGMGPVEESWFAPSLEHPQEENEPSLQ
Description: The catalytic activity of RIPK1 was measured by monitoring the conversion of Adenosine triphosphate (ATP) to Adenosine diphosphate (ADP) due to autophosphorylation using an ADP-Glo kinase kit (Promega, catalog no. V9104).
In detail, 2 μl recombinantly produced hRIPK1 (aa 1-375) fusion protein (end concentration 3.6 μg/ml) and 2 μl compound (end concentration 33300-1.69 nM; DMSO end concentration 1%) were incubated for 30 minutes at room temperature and then 2 μl ATP (ADP Glo kit, end concentration 50 μM) were added. After another 240 minutes incubation at room temperature, 5 μl Promega ADP-Glo reagent I was added to quench the reaction and deplete unconsumed ATP. After an incubation period of 30 minutes, 10 μl Promega ADP-Glo detection reagent II was added resulting in conversion of ADP to ATP, which generates a light-reaction between luciferase and luciferin. Luminescence was quantified after 30 minutes with a Pherastar FS (BMG LABTECH, Ortenberg).
The adjustment was obtained by nonlinear regression using the Levenberg Marquardt algorithm.

U937 cells = experiment: Cellular assay in U937 cells: activity of RIPK1 inhibitors on TNFα/zVAD.fmk-induced cell death (necroptosis), CellTiter 96 AQueous (MTS) readout; assay type: cell-based; details: Homo sapiens, U-937
Text: Upon TNF-Receptor I ligation, Ser/Thr kinase RIPK1 is recruited to a transient receptor complex 1. Upon modification of RIPK1 which promotes activation of RIPK1, complex IIb can form, that involves recruitment of RIPK3 and MLKL (mixed lineage-kinase domain-like protein) which then translocates from the cytosol to the plasma membrane to execute cell death (Cai, Z. et al, Nat. Cell Biol. (2014) 16:55-65).
Cell death was quantified in 96 well plates by determination of the amount of live cell using a CellTiter 96 AQueous reagent (Promega), a calorimetric method to measure the number of live cells by reducing tetrazolium compound [3-(4,5-dimethylthiazol-2-yl)-5-(3-carboxymethoxyphenyl)-2-(4-sulfophenyl)-2H-tetrazolium, inner salt; MTS] into formazan. Absorbance of formazan was read at 490 nm. The inhibitory activity of the test compound was quantified in a concentration response curve (CRC) experiment.
Compounds were obtained as 10 mM stock solutions and were diluted 1 to 10 volumes with DMSO to yield a 1 mM solution. From this solution 2 μl were diluted with 998 μl growth medium. 100 μl of 2 μM compound solution was further diluted sequentially with a dilution factor of 2.5 by adding 150 μl growth medium. A total of 10 concentrations were tested ranging from 10 μM to 0.26 nM or from 1 μM to 0.07 nM.
U937 cells were cultured in RPMI1640 Glutamax and 10% heat inactivated FBS. 50 μl cell suspension containing 1×10^6 cells/ml supplemented with 50 μM zVAD.fmk (Benzyloxycarbonyl-Val-Ala-Asp (OMe) fluoromethylketone) and 100 ng/ml recombinant human TNF[…] were dispensed in each well of a 96-well plate. 50 μl of compound dilutions (described in Cellular assay in U937 cells) were added and the cell suspension incubated overnight (18 to 24 hrs) at 37° C., 5% CO2 in a humidified atmosphere (95% rH). High (no compound) and low control (no TNF[…], zVAD.fmk) were tested with 7 replicates; all compound concentrations were tested in duplicates on each experimental plate.
CellTiter 96 Aqueous reagent was mixed (100 μl PMS (phenazine methosulfate) solution/2 ml MTS (3-(4,5-[…])-5-(3-carboxymethoxyphenyl)-2-(4-sulfophenyl)-2H-tetrazolium, inner salt) solution) and 20 μl were added per well. After 4 hrs incubation at 37° C. (5% CO2 95% rH) optical density was measured at 490 nm on a microplate reader (Tecan Infinite M1000).
The % inhibition is expressed as percentage of the maximal inhibition value obtained in the absence of TNFα/zVAD.fmc.

| SMILES | IC50 [1] [nM] | IC50 (U937 cells) [nM] |
| --- | --- | --- |
| N#Cc1cc(F)cc([C@@H]2CCON2C(=O)[C@H]2CC[C@H](Cn3ncc4ccc(C#N)cc43)CC2)c1 [compound 28, trans-1-((4-((S)-3-(3-cyano-5-fluorophenyl)isoxazolidine-2-carbonyl)cyclohexyl)methyl)-1H-indazole-6-carbonitrile] | 19 | 3 |
| N#Cc1ccc2cnn(C[C@H]3CC[C@H](C(=O)N4OCC[C@H]4c4cc(F)cc(F)c4)CC3)c2c1 [compound 29, trans-1-((4-((S)-3-(3,5-difluorophenyl)isoxazolidine-2-carbonyl)cyclohexyl)methyl)-1H-indazole-6-carbonitrile] | 12 | 1 |
| N#Cc1cc(F)cc([C@@H]2CCON2C(=O)[C@H]2CC[C@H](Cn3cc4ccc(C#N)cc4n3)CC2)c1 [compound 30, trans-2-((4-((S)-3-(3-cyano-5-fluorophenyl)isoxazolidine-2-carbonyl)cyclohexyl)methyl)-2H-indazole-6-carbonitrile] | 39 | 68 |
| N#Cc1ccc2cn(C[C@H]3CC[C@H](C(=O)N4OCC[C@H]4c4cc(F)cc(F)c4)CC3)nc2c1 [compound 31, trans-2-((4-((S)-3-(3,5-difluorophenyl)isoxazolidine-2-carbonyl)cyclohexyl)methyl)-2H-indazole-6-carbonitrile] | 24 | 19 |
| N#Cc1cc(F)cc([C@@H]2CCON2C(=O)[C@H]2CC[C@H](Cn3ncc4c(F)cc(C#N)cc43)CC2)c1 [compound 32, trans-1-((4-((S)-3-(3-cyano-5-fluorophenyl)isoxazolidine-2-carbonyl)cyclohexyl)methyl)-4-fluoro-1H-indazole-6-carbonitrile] | 19 | 3 |
| N#Cc1cc(F)c2cnn(C[C@H]3CC[C@H](C(=O)N4OCC[C@H]4c4cc(F)cc(F)c4)CC3)c2c1 [compound 33, trans-1-((4-((S)-3-(3,5-difluorophenyl)isoxazolidine-2-carbonyl)cyclohexyl)methyl)-4-fluoro-1H-indazole-6-carbonitrile] | 19 | 2 |
| N#Cc1cc(F)cc([C@@H]2CCON2C(=O)[C@H]2CC[C@H](Cn3cc4c(F)cc(C#N)cc4n3)CC2)c1 [compound 34, trans-2-((4-((S)-3-(3-cyano-5-fluorophenyl)isoxazolidine-2-carbonyl)cyclohexyl)methyl)-4-fluoro-2H-indazole-6-carbonitrile] | 37 | 69 |
| N#Cc1cc(F)c2cn(C[C@H]3CC[C@H](C(=O)N4OCC[C@H]4c4cc(F)cc(F)c4)CC3)nc2c1 [compound 35, trans-2-((4-((S)-3-(3,5-difluorophenyl)isoxazolidine-2-carbonyl)cyclohexyl)methyl)-4-fluoro-2H-indazole-6-carbonitrile] | 41 | 48 |
| N#Cc1cc(F)cc([C@@H]2CCON2C(=O)[C@H]2CC[C@H](Cn3cnc4c(F)cc(C#N)cc43)CC2)c1 [compound 36, trans-1-((4-((S)-3-(3-cyano-5-fluorophenyl)isoxazolidine-2-carbonyl)cyclohexyl)methyl)-4-fluoro-1H-benzo[d]imidazole-6-carbonitrile] | 23 | 20 |
| N#Cc1cc(F)c2ncn(C[C@H]3CC[C@H](C(=O)N4OCC[C@H]4c4cc(F)cc(F)c4)CC3)c2c1 [compound 37, trans-1-((4-((S)-3-(3,5-difluorophenyl)isoxazolidine-2-carbonyl)cyclohexyl)methyl)-4-fluoro-1H-benzo[d]imidazole-6-carbonitrile] | 17 | 5 |
| Cc1cc([C@@H]2CCON2C(=O)[C@H]2CC[C@H](Cn3cnc4c(F)cc(C#N)cc43)CC2)co1 [compound 38, trans-4-fluoro-1-((4-((S)-3-(5-methylfuran-3-yl)isoxazolidine-2-carbonyl)cyclohexyl)methyl)-1H-benzo[d]imidazole-6-carbonitrile] | 32 | 30 |
| Cc1cc([C@@H]2CCON2C(=O)[C@H]2CC[C@H](Cn3cnc4cc(F)c(C#N)cc43)CC2)co1 [compound 39, trans-5-fluoro-1-((4-((S)-3-(5-methylfuran-3-yl)isoxazolidine-2-carbonyl)cyclohexyl)methyl)-1H-benzo[d]imidazole-6-carbonitrile] | 28 | 15 |
| Cc1cc([C@@H]2CCON2C(=O)[C@H]2CC[C@H](Cn3cnc4cc(C#N)c(F)cc43)CC2)co1 [compound 40, trans-6-fluoro-1-((4-((S)-3-(5-methylfuran-3-yl)isoxazolidine-2-carbonyl)cyclohexyl)methyl)-1H-benzo[d]imidazole-5-carbonitrile] | 41 | 59 |
| Cc1cc([C@@H]2CCON2C(=O)[C@H]2CC[C@H](Cn3cc4ccc(C#N)cc4n3)CC2)co1 [compound 41, trans-2-((4-((S)-3-(5-methylfuran-3-yl)isoxazolidine-2-carbonyl)cyclohexyl)methyl)-2H-indazole-6-carbonitrile] | 30 | 91 |
| Cc1cc([C@@H]2CCON2C(=O)[C@H]2CC[C@H](Cn3cc4c(F)cc(C#N)cc4n3)CC2)co1 [compound 42, trans-4-fluoro-2-((4-((S)-3-(5-methylfuran-3-yl)isoxazolidine-2-carbonyl)cyclohexyl)methyl)-2H-indazole-6-carbonitrile] | 39 | 119 |
| Cc1cc([C@@H]2CCON2C(=O)[C@H]2CC[C@H](Cn3ncc4ccc(C#N)cc43)CC2)co1 [compound 43, trans-1-((4-((S)-3-(5-methylfuran-3-yl)isoxazolidine-2-carbonyl)cyclohexyl)methyl)-1H-indazole-6-carbonitrile] | 18 | 1 |
| Cc1cc([C@@H]2CCON2C(=O)[C@H]2CC[C@H](Cn3ncc4c(F)cc(C#N)cc43)CC2)co1 [compound 44, trans-4-fluoro-1-((4-((S)-3-(5-methylfuran-3-yl)isoxazolidine-2-carbonyl)cyclohexyl)methyl)-1H-indazole-6-carbonitrile] | 17 | 2 |
| N#Cc1cc(F)c2ccn(C[C@H]3CC[C@H](C(=O)N4OCC[C@H]4c4cc(F)cc(F)c4)CC3)c2c1 [compound 45, trans-1-((4-((S)-3-(3,5-difluorophenyl)isoxazolidine-2-carbonyl)cyclohexyl)methyl)-4-fluoro-1H-indole-6-carbonitrile] | 18 | 6 |
| N#Cc1cc(F)cc([C@@H]2CCON2C(=O)[C@H]2CC[C@H](Cn3ccc4c(F)cc(C#N)cc43)CC2)c1 [compound 46, trans-1-((4-((S)-3-(3-cyano-5-fluorophenyl)isoxazolidine-2-carbonyl)cyclohexyl)methyl)-4-fluoro-1H-indole-6-carbonitrile] | 13 | 6 |
| Cc1cc([C@@H]2CCON2C(=O)[C@H]2CC[C@H](Cn3ccc4c(F)cc(C#N)cc43)CC2)co1 [compound 47, trans-4-fluoro-1-((4-((S)-3-(5-methylfuran-3-yl)isoxazolidine-2-carbonyl)cyclohexyl)methyl)-1H-indole-6-carbonitrile] | 18 | 3 |
